# Assay results reported in US20250152591A1, “TREATMENT OF HEMATOLOGICAL MALIGNANCIES WITH MENIN INHIBITORS AND P-GLYCOPROTEIN INHIBITORS” (Kura Oncology, Inc., priority 2022, published 2025).
# Like-named read-outs stand apart in the source and are kept apart here.
# Legend:
# OCI-AML3-PGP cell line = assay: Cell viability assay, OCI-AML3-PGP; assay type: cell-based; set-up: unit of the concentration uncertain; settings: 168 h, 7 days
# Protocol: (§1) A third set of experiments was conducted in the cell line OCI-AML3, which carries the W288Cfs*12 mutation in NPM protein. The P-gp expressing OCI-AML3 cell line (OCI-AML3-PGP) and the Luciferase expressing OC-AML3 cell line (OCI-AML3-Control) were established by lentivirally transducing P-gp ORF or Luciferase ORF. Cells were treated with Compound I or SNDX-5613 for 7 days to assess the IC50 values.
# MOLM13-Control cell line = assay: Cell viability assay, MOLM13-Control; assay type: cell-based; set-up: unit of the concentration uncertain; settings: 168 h, 7 days
# Protocol: (§2) The effects described above were investigated in an AML cell line, MOLM-13, which carries a KA4T2A (MLL)-rearrangement mutation. The P-gp expressing MOLM-13 cell line (MOLM13-PGP) and the Luciferase expressing MOLM-13 cell line (MOLM13-Control) were established by lentivirally transducing P-gp ORF or Luciferase ORF. Cells were plated and treated with test compound for 7 days.
# MOLM13-PGP cell line = assay: Cell viability assay, MOLM13-PGP; assay type: cell-based; set-up: unit of the concentration uncertain; settings: 168 h, 7 days
# Protocol: as §2
# P-gp = P-gp (Homo sapiens, UniProt P08183); assay: in vitro; settings: MDCK-MDR1, pH 7.4
# Protocol: MDCK epithelial cells stably transfected with the human MDR1 gene (the gene encoding for the efflux protein P-gp) were seeded on a Multiscreen™ plate (Millipore, MA, USA) and formed a confluent monolayer over 4 days prior to the experiment. To verify the MDR1-MDCK cell monolayers were properly formed, aliquots of the cell buffers were analyzed by fluorescence to determine the transport of the impermeable dye Lucifer Yellow. Any deviations from control values are reported.
# MDR1-MDCK cells were incubated with these buffers for 2 h, and the receiver side buffer was removed for analysis by LC-MS/MS.
# The rate of passage of the test compounds through this cell monolayer barrier from apical to basolateral (A→B) in this bi-directional transport assay was used to determine the apparent permeability coefficient (Papp). Receiver, donor, and dosing solution concentrations were quantified using a calibration curve prepared in transport buffer solution (pH 7.4). Papp is calculated as
# where dQ/dt is rate of permeation, C0 is initial concentration of test agent, and A is the area of monolayer (0.11 cm^2). The basolateral to apical (B→A) to apical to basolateral (A→B) apparent permeability coefficient ratio
# When RE>2 for a tested compound, the tested compound is a potential substrate for P-gp.
# Rantinidine, talinolol, warfarin, and loperamide (±2 μM elacridar) were tested as reference compounds and each was tested at a concentration of 10 μM.
# [1] = tested on: OCI-AML3-Control cell line; assay: Cell viability assay, OCI-AML3-Control; assay type: cell-based; set-up: unit of the concentration uncertain; settings: 168 h, 7 days
# Protocol: as §1
# MV4;11-Control cell line = assay: CellTiter-Glo cell viability assay, MV4;11-Control; assay type: cell-based; set-up: unit of the concentration uncertain
# Protocol: (§3) The influence of efflux pumps on the antitumor activity of the test compounds at steady state (more clinically relevant) were evaluated using P-gp-transfected AML cells (MV4;11 cells) in 6-day viability assays.
# (§4) A P-gp-expressing KMT2A(MLL)-rearranged cell line model was developed by lentiviral transduction of the MV4;11 parental cell line and then selection for either Luciferase ORF (MV4;11-Control) or P-gp ORF (MV4;11-PGP).
# (§5) […] Cell viability was measured by CellTiter-Glo® Luminescent Cell Viability Assay (CTG assay, Promega Corp.) and % Viability was quantified by normalizing to the luminescence values of DMSO-only treated cells. The dose-response curves and IC50's were calculated using GraphPad Prism 9.4.1.
# (§6) The measured luminescence in the live cells of the MV4;11-Control and MV4;11-PGP cells that were treated with Compound I only (+DMSO), Compound I+posaconazole […], and valspodar (1 mM) are shown in FIGS. 5A and 5B.
# (§7) In a second set of experiments, MV4;11-Control and MV4;11-PGP cell lines were treated as described above with five menin inhibitors, including Compound I, SNDX-5613, Compound A, Compound B, and Compound C, at concentrations ranging from 0 to 1000 nM. All tested compounds dropped in potency due to the P-gp expression as shown in FIGS. 6A-6J and in Tables 5 and 6 (indicated by increased IC50 values between “MV4;11-Control (Compound+DMSO)” and “MV4;11-PGP (Compound+DMSO)” entries).
# MV4;11-PGP cell line = assay: CellTiter-Glo cell viability assay, MV4;11-PGP; assay type: cell-based; set-up: unit of the concentration uncertain
# Protocol: as §3, §4, §5, §6, §7
# [2] = tested on: MV4;11 parental cell line; assay: CellTiter-Glo cell viability assay, MV4;11 parental; assay type: cell-based; settings: Homo sapiens, MV4-11, 144 h; Compound I only, 0 to 1000 nM, 6 days, Table 3
# Protocol: as §3, §4
# The MV4;11 parental, MV4;11-Control, and MV4;11-PGP cells were seeded on a 96-well plate and the cell lines were treated with Compound I at doses ranging from 0 to 1000 nM for 6 days. Cell viability was measured by CellTiter-Glo® Luminescent Cell Viability Assay (CTG assay, Promega Corp.) and % Viability was quantified by normalizing to the luminescence values of DMSO-only treated cells. The dose-response curves and IC50's were calculated using GraphPad Prism 9.4.1.
# Chain of P-gp (P08183 whole entry): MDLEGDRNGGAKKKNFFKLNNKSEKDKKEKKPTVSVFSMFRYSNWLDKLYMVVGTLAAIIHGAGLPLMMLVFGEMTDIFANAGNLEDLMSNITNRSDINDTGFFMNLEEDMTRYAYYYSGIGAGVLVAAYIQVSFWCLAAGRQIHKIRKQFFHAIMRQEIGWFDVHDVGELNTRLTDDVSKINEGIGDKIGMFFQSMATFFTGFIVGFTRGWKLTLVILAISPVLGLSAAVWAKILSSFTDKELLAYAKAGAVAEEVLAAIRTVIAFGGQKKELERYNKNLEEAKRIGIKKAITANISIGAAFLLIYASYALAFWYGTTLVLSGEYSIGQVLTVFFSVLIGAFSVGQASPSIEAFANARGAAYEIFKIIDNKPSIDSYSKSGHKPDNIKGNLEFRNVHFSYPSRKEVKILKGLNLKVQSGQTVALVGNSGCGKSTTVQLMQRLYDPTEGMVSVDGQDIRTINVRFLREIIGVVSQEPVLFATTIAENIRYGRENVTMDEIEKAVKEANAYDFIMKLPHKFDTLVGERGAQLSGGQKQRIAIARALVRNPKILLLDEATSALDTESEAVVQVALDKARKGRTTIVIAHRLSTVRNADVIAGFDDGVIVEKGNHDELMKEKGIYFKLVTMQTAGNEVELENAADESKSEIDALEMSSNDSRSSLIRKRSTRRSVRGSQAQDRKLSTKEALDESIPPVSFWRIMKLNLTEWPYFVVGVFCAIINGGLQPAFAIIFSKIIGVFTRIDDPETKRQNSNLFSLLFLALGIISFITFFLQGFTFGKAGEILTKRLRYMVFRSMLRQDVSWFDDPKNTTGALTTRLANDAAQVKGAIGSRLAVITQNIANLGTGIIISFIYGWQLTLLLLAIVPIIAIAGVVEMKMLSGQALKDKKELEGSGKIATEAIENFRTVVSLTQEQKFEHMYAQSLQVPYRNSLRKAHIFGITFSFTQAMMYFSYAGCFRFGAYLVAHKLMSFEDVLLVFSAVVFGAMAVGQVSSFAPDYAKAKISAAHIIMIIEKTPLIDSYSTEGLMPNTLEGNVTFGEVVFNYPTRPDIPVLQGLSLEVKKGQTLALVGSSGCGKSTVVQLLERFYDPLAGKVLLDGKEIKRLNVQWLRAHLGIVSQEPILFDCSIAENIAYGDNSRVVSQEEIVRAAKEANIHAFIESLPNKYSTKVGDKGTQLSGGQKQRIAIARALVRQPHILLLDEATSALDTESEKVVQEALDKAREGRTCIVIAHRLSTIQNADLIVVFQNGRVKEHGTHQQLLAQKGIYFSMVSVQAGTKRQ
smiles,measurement,setting,value
CNc1nc(NC2CCN(Cc3ccc4c(cc(C#N)n4C[C@H](C)N4CCN(S(C)(=O)=O)CC4)c3C)CC2)c2cc(CC(F)(F)F)sc2n1 [Compound I],IC50,"OCI-AML3-PGP cell line; Table 9, read-out: IC50 OCI-AML3-PGP (Compound + DMSO)",38.9 nM
same,IC50,"OCI-AML3-PGP cell line; Table 10, read-out: IC50 OCI-AML3-PGP (Compound + DMSO)",50.2 nM
same,IC50,"OCI-AML3-PGP cell line; posaconazole (0.75 (unit uncertain)), Table 9, read-out: IC50 OCI-AML3-PGP (Compound + posaconazole)",19.2 nM
same,IC50,"OCI-AML3-PGP cell line; valspodar (1 (unit uncertain)), Table 10, read-out: IC50 OCI-AML3-PGP (Compound + valspodar)",15.7 nM
same,IC50,"MOLM13-Control cell line; Table 7, read-out: IC50 MOLM13-Control (Compound + DMSO)",23.7 nM
same,IC50,"MOLM13-Control cell line; Table 8, read-out: IC50 MOLM13-Control (compound + DMSO)",27 nM
same,IC50,"MOLM13-Control cell line; posaconazole (1.5 (unit uncertain)), Table 7, read-out: IC50 MOLM13-Control (Compound + posaconazole)",16.5 nM
same,IC50,"MOLM13-Control cell line; valspodar (1 (unit uncertain)), Table 8, read-out: IC50 MOLM13-Control (Compound + valspodar)",22.3 nM
same,IC50,"MOLM13-PGP cell line; Table 7, read-out: IC50 MOLM13-PGP (Compound + DMSO)",65.7 nM
same,IC50,"MOLM13-PGP cell line; Table 8, read-out: IC50 MOLM13-PGP (Compound + DMSO)",63.2 nM
same,IC50,"MOLM13-PGP cell line; posaconazole (1.5 (unit uncertain)), Table 7, read-out: IC50 MOLM13-PGP (Compound + posaconazole)",19.2 nM
same,IC50,"MOLM13-PGP cell line; valspodar (1 (unit uncertain)), Table 8, read-out: IC50 MOLM13-PGP (Compound + valspodar)",23 nM
same,Papp A→B at 2 h,P-gp,0.308 ×10⁻⁶ cm/s
same,Papp B→A at 2 h,P-gp,1.84 ×10⁻⁶ cm/s
same,IC50,"[1]; Table 9, read-out: IC50 OCI-AML3-Control (Compound + DMSO)",16.4 nM
same,IC50,"[1]; Table 10, read-out: IC50 OCI-AML3-Control (Compound + DMSO)",15.3 nM
same,IC50,"[1]; posaconazole (0.75 (unit uncertain)), Table 9, read-out: IC50 OCI-AML3-Control (Compound + posaconazole)",17.7 nM
same,IC50,"[1]; valspodar (1 (unit uncertain)), Table 10, read-out: IC50 OCI-AML3-Control (Compound + valspodar)",19.2 nM
same,IC50,"MV4;11-Control cell line; 120 h, MV4;11-Control, 5 days, Table 4, read-out: IC50 (Compound I + DMSO)",7.2 nM
same,IC50,"MV4;11-Control cell line; 120 h, MV4;11-Control, posaconazole (1.5 μM), 5 days, Table 4, read-out: IC50 (Compound I + Posaconazole)",3.8 nM
same,IC50,"MV4;11-Control cell line; 120 h, MV4;11-Control, valspodar (1 μM), 5 days, Table 4, read-out: IC50 (Compound I + Valspodar)",6.1 nM
same,IC50,"MV4;11-Control cell line; 144 h, Compound I only, 0 to 1000 nM, 6 days, Table 3, read-out: IC50 MV4;11-Control",7.6 nM
same,IC50,"MV4;11-Control cell line; 144 h, second set of experiments, 0 to 1000 nM, Table 5, read-out: IC50 MV4;11-Control (Compound + DMSO)",6.05 nM
same,IC50,"MV4;11-Control cell line; 144 h, second set of experiments, 0 to 1000 nM, Table 6, read-out: IC50 MV4;11-Control (Compound + DMSO)",6.14 nM
same,IC50,"MV4;11-Control cell line; second set of experiments, posaconazole (1.5 (unit uncertain)), Table 5, read-out: IC50 MV4;11-Control (Compound + posaconazole)",3.76 nM
same,IC50,"MV4;11-Control cell line; second set of experiments, valspodar (1 (unit uncertain)), Table 6, read-out: IC50 MV4;11-Control (Compound + valspodar)",4.84 nM
same,IC50,"MV4;11-PGP cell line; 120 h, MV4;11-PGP, 5 days, Table 4, read-out: IC50 (Compound I + DMSO)",33 nM
same,IC50,"MV4;11-PGP cell line; 120 h, MV4;11-PGP, posaconazole (1.5 μM), 5 days, Table 4, read-out: IC50 (Compound I + Posaconazole)",7.1 nM
same,IC50,"MV4;11-PGP cell line; 120 h, MV4;11-PGP, valspodar (1 μM), 5 days, Table 4, read-out: IC50 (Compound I + Valspodar)",4.7 nM
same,IC50,"MV4;11-PGP cell line; 144 h, second set of experiments, 0 to 1000 nM, Table 5, read-out: IC50 MV4;11-PGP (Compound + DMSO)",19.1 nM
same,IC50,"MV4;11-PGP cell line; 144 h, second set of experiments, 0 to 1000 nM, Table 6, read-out: IC50 MV4;11-PGP (Compound + DMSO)",19.9 nM
same,IC50,"MV4;11-PGP cell line; second set of experiments, posaconazole (1.5 (unit uncertain)), Table 5, read-out: IC50 MV4;11-PGP (Compound + posaconazole)",5.79 nM
same,IC50,"MV4;11-PGP cell line; second set of experiments, valspodar (1 (unit uncertain)), Table 6, read-out: IC50 MV4;11-PGP (Compound + valspodar)",5.64 nM
same,IC50,[2],8.5 nM
